The source of these data is patent publication US10212936B2, “Molecules having pesticidal utility, and intermediates, compositions, and processes, related thereto” (priority 2014, dated 2019).

Molecules are shown by their SMILES.

Holding throughout (format): in vivo
In data set [1] the test system is Beet Armyworm (Spodoptera exigua, LAPHEG). Put plainly: Bioassay on Beet Armyworm (BAW), 128-well diet tray assay. Particulars: 168 h, 50 μg/cm^2 on artificial diet, second instar larvae, five to seven days, 25° C., read-out: BAW % Control (or Mortality) rating. Put shortly:
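Second instar larvae, one to five per well, placed on artificial diet treated with 50 μg/cm^2 compound (in 90:10 acetone-water) and dried; eight wells per compound. Held at 25° C, 14:10 light-dark, five to seven days. Percent mortality recorded per well and averaged.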

Data set [2] deals with Cabbage Looper (Trichoplusia ni, TRIPNI). As to the kind of experiment: Bioassay on Cabbage Looper (CL), 128-well diet tray assay. Particulars: 168 h, 50 μg/cm^2 on artificial diet, second instar larvae, five to seven days, 25° C., read-out: CL % Control (or Mortality) rating. Put shortly: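 Diet-tray test with one to five second-instar larvae per well on artificial diet treated with 50 μg/cm^2 compound (in 90:10 acetone-water), dried, eight wells per molecule. Held 25 °C, 14:10 light-dark for five to seven days; percent mortality averaged over the eight wells.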

The subject of data set [3] is Green Peach Aphid (Myzus persicae, MYZUPE). As to the kind of experiment: Bioassay on Green Peach Aphid (GPA), foliar spray on cabbage seedlings. Conditions: 72 h, 200 ppm foliar spray on cabbage seedlings, three days, Abbott corrected % control, read-out: GPA % Control (or Mortality) rating. As to the method:
Example B: Bioassays on Green Peach Aphid (Myzus persicae, MYZUPE) (“GPA”)
Certain molecules disclosed in this document were tested against GPA using procedures described in the following example. In the reporting of the results, the “GPA Rating Table” was used (See Table Section).
Cabbage seedlings grown in 3-inch pots, with 2-3 small (3-5 cm) true leaves, were used as test substrate. The seedlings were infested with 20-50 GPA (wingless adult and nymph stages) one day prior to chemical application. Four pots with individual seedlings were used for each treatment. Test molecules (2 mg) were dissolved in 2 mL of acetone/methanol (1:1) solvent, forming stock solutions of 1000 ppm test molecule. The stock solutions were diluted 5× with 0.025% Tween 20 in water to obtain the solution at 200 ppm test molecule. A hand-held aspirator-type sprayer was used for spraying a solution to both sides of […] leaves until runoff. Reference plants (solvent check) were sprayed with the diluent only containing 20% by volume of acetone/methanol (1:1) solvent. Treated plants were held in a holding room for three days at approximately 25° C. and ambient relative humidity (RH) prior to grading. Evaluation was conducted by counting the number of live aphids per plant under a microscope. Percent Control was measured by using Abbott's correction formula (W. S. Abbott, “A Method of Computing the Effectiveness of an Insecticide” J. Econ. Entomol. 18 (1925), pp. 265-267) as follows. Corrected % Control=100*(X−Y)/X • where • X=No. of live aphids on solvent check plants and • Y=No. of live aphids on treated plants
The results are indicated in the table entitled “Table ABC: Biological Results” (See Table Section).

Data set [4] has as its system Yellow Fever Mosquito (Aedes aegypti, AEDSAE). As to the kind of experiment: Bioassay on Yellow Fever Mosquito (YFM) larvae, 96-well plate. Conditions: about 1 day-old larvae, 4000 ppm DMSO master plate diluted, graded after 3 days. The essentials:
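Compounds from 4000 ppm DMSO master stocks, diluted in 90:10 water:acetone, dispensed into wells and infested with about 1-day-old Aedes aegypti larvae in liver-powder water. Six replicate plates, covered and held at room temperature for 3 days, then each well scored for mortality.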

Data set [5] relates to Corn Earworm (Helicoverpa zea, HELIZE). As to the kind of experiment: Bioassay on Corn Earworm (CEW), 128-well diet tray assay. Particulars: 168 h, 50 μg/cm^2 on artificial diet, second instar larvae, five to seven days, 25° C., read-out: CEW % Control (or Mortality) rating. As to the method: Example A: Bioassays on Beet Armyworm (Spodoptera exigua, LAPHEG) (“BAW”), Corn Earworm (Helicoverpa zea, HELIZE) (“CEW”), and Cabbage Looper (Trichoplusia ni, TRIPNI) (“CL”)
Certain molecules disclosed in this document were tested against BAW, CEW, and CL using procedures described in the following examples. In the reporting of the results, the “BAW, CEW, & CL Rating Table” was used (See Table Section).
Bioassays on CEW were conducted using a 128-well diet tray assay. one to five second instar CEW larvae were placed in each well (3 mL) of the diet tray that had been previously filled with 1 mL of artificial diet to which 50 μg/cm^2 of the test molecule (dissolved in 50 μL of 90:10 acetone-water mixture) had been applied (to each of eight wells) and then allowed to dry. Trays were covered with a clear self-adhesive cover, and held at 25° C., 14:10 light-dark for five to seven days. Percent mortality was recorded for the larvae in each well; activity in the eight wells was then averaged. The results are indicated in the table entitled “Table ABC: Biological Results” (See Table Section).

As to `Cc1cc(Cl)ccc1-n1nccc1NC(=O)Nc1ccc(-c2ncn(-c3ccc(OC(F)(F)F)cc3)n2)cc1` [F3, 1-(1-(4-Chloro-2-methylphenyl)-1H-pyrazol-5-yl)-3-(4-(1-(4-(trifluoromethoxy)phenyl)-1H-1,2,4-triazol-3-yl)phenyl)urea], the mortality at 50 µg/cm2 in data set [1] and in data set [2] was 50 to 100% each time. In addition, the mortality at 200 ppm in data set [3] turned out to be 0%. In addition, the “YFM % Control (or Mortality) rating” value in data set [4] is listed as “A (80-100)”.
Consider `O=C(Nc1ccc(-c2ncn(-c3ccc(OC(F)(F)F)cc3)n2)cc1)Nc1ccnn1-c1c(Cl)cccc1Cl` [F4, 1-(1-(2,6-Dichlorophenyl)-1H-pyrazol-5-yl)-3-(4-(1-(4-(trifluoromethoxy)phenyl)-1H-1,2,4-triazol-3-yl)phenyl)urea], for which the mortality at 50 µg/cm2 in data set [1] and in data set [2] was 50 to 100% in each case. The mortality at 200 ppm in data set [3] is 0 to 80%. The “YFM % Control (or Mortality) rating” value in data set [4] is recorded as “A (80-100)”.
Turning to `Cc1ccc(F)cc1-n1nccc1NC(=O)Nc1ccc(-c2ncn(-c3ccc(OC(F)(F)F)cc3)n2)cc1` [F5, 1-(1-(5-Fluoro-2-methylphenyl)-1H-pyrazol-5-yl)-3-(4-(1-(4-(trifluoromethoxy)phenyl)-1H-1,2,4-triazol-3-yl)phenyl)urea], the mortality at 50 µg/cm2 in data set [1] and in data set [2] was 50 to 100% throughout. In data set [3], the mortality at 200 ppm came to 0%. Moreover, in data set [4], the “YFM % Control (or Mortality) rating” value is reported as “A (80-100)”.
Regarding `CCc1ccccc1-n1nccc1NC(=O)Nc1ccc(-c2ncn(-c3ccc(OC(F)(F)F)cc3)n2)cc1` [F6, 1-(1-(2-Ethylphenyl)-1H-pyrazol-5-yl)-3-(4-(1-(4-(trifluoromethoxy)phenyl)-1H-1,2,4-triazol-3-yl)phenyl)urea], the mortality at 50 µg/cm2 in data set [1] and in data set [2] was 50 to 100% each time. The mortality at 200 ppm in data set [3] turned out to be 0%. For the same compound, in data set [4], the “YFM % Control (or Mortality) rating” value is “A (80-100)”.
As for `Cc1ccc(C)c(-n2nccc2NC(=O)Nc2ccc(-c3ncn(-c4ccc(OC(F)(F)F)cc4)n3)cc2)c1` [F7, 1-(1-(2,5-Dimethylphenyl)-1H-pyrazol-5-yl)-3-(4-(1-(4-(trifluoromethoxy)phenyl)-1H-1,2,4-triazol-3-yl)phenyl)urea], the mortality at 50 µg/cm2 in data set [1] and in data set [2] was 50 to 100% in each case. In addition, the mortality at 200 ppm in data set [3] is 0 to 80%. Further, the “YFM % Control (or Mortality) rating” value in data set [4] is “A (80-100)”.
Consider `Cc1ccc(-n2nccc2NC(=O)Nc2ccc(-c3ncn(-c4ccc(OC(F)(F)F)cc4)n3)cc2)c(C)c1` [F9, 1-(1-(2,4-Dimethylphenyl)-1H-pyrazol-5-yl)-3-(4-(1-(4-(trifluoromethoxy)phenyl)-1H-1,2,4-triazol-3-yl)phenyl)urea], for which the mortality at 50 µg/cm2 in data set [1] and in data set [2] was 50 to 100% each time. In addition, the mortality at 200 ppm in data set [3] was 0 to 80%. Moreover, the “YFM % Control (or Mortality) rating” value in data set [4] is listed as “A (80-100)”.
On to `Cc1cc(C)c(-n2nccc2NC(=O)Nc2ccc(-c3ncn(-c4ccc(OC(F)(F)F)cc4)n3)cc2)c(C)c1` [F11, 1-(1-Mesityl-1H-pyrazol-5-yl)-3-(4-(1-(4-(trifluoromethoxy)phenyl)-1H-1,2,4-triazol-3-yl)phenyl)urea], for which the mortality at 50 µg/cm2 in data set [1] and in data set [2] was 50 to 100% throughout. In addition, the mortality at 200 ppm in data set [3] worked out at 0%. For the same compound, the “YFM % Control (or Mortality) rating” value in data set [4] was “A (80-100)”.
For `O=C(Nc1ccc(-c2ncn(-c3ccc(OC(F)(F)F)cc3)n2)cc1)Nc1ccnn1-c1cc(Cl)ccc1Cl` [F12, 1-(1-(2,5-Dichlorophenyl)-1H-pyrazol-5-yl)-3-(4-(1-(4-(trifluoromethoxy)phenyl)-1H-1,2,4-triazol-3-yl)phenyl)urea], the mortality at 50 µg/cm2 in data set [1] and in data set [2] was 50 to 100% each time. In data set [3], the mortality at 200 ppm lay within 0 to 80%. Besides, the “YFM % Control (or Mortality) rating” value in data set [4] is “A (80-100)”.
In the case of `COc1ccccc1-n1nccc1NC(=O)Nc1ccc(-c2ncn(-c3ccc(OC(F)(F)F)cc3)n2)cc1` [F13, 1-(1-(2-Methoxyphenyl)-1H-pyrazol-5-yl)-3-(4-(1-(4-(trifluoromethoxy)phenyl)-1H-1,2,4-triazol-3-yl)phenyl)urea], the mortality at 50 µg/cm2 in data set [1] and in data set [2] was 50 to 100% each time. In data set [3], the mortality at 200 ppm stood at 0%. The “YFM % Control (or Mortality) rating” value in data set [4] is on record as “A (80-100)”.
For the compound `O=C(Nc1ccc(-c2ncn(-c3ccc(OC(F)(F)C(F)(F)F)cc3)n2)cc1)Nc1ccnn1-c1c(Cl)cccc1Cl` [F14, 1-(1-(2,6-Dichlorophenyl)-1H-pyrazol-5-yl)-3-(4-(1-(4-(perfluoroethoxy)phenyl)-1H-1,2,4-triazol-3-yl)phenyl)urea], the mortality at 50 µg/cm2 in data set [1] and in data set [2] was 50 to 100% throughout. The mortality at 200 ppm in data set [3] is 0 to 80%. For the same compound, the “YFM % Control (or Mortality) rating” value in data set [4] is on record as “A (80-100)”.
On to `Cc1ccc(-n2nccc2NC(=O)Nc2ccc(-c3ncn(-c4ccc(OC(F)(F)C(F)(F)F)cc4)n3)cc2)c(C)c1` [F15, 1-(1-(2,4-Dimethylphenyl)-1H-pyrazol-5-yl)-3-(4-(1-(4-(perfluoroethoxy)phenyl)-1H-1,2,4-triazol-3-yl)phenyl)urea], for which the mortality at 50 µg/cm2 in data set [1] and in data set [2] was 50 to 100% in each case. Moreover, the mortality at 200 ppm in data set [3] was in the range of 0 to 80%. Moreover, in data set [4], the “YFM % Control (or Mortality) rating” value was “A (80-100)”.
With `Cc1ccc(F)cc1-n1nccc1NC(=O)Nc1ccc(-c2ncn(-c3ccc(OC(F)(F)C(F)(F)F)cc3)n2)cc1` [F16, 1-(1-(5-Fluoro-2-methylphenyl)-1H-pyrazol-5-yl)-3-(4-(1-(4-(perfluoroethoxy)phenyl)-1H-1,2,4-triazol-3-yl)phenyl)urea], the mortality at 50 µg/cm2 in data set [1] and in data set [2] was 50 to 100% each time. In addition, in data set [3], the mortality at 200 ppm was found to be 0%. Moreover, the “YFM % Control (or Mortality) rating” value in data set [4] is reported as “A (80-100)”.
With `Cc1ccc(C)c(-n2nccc2NC(=O)Nc2ccc(-c3ncn(-c4ccc(OC(F)(F)C(F)(F)F)cc4)n3)cc2)c1` [F17, 1-(1-(2,5-Dimethylphenyl)-1H-pyrazol-5-yl)-3-(4-(1-(4-(perfluoroethoxy)phenyl)-1H-1,2,4-triazol-3-yl)phenyl)urea], the mortality at 50 µg/cm2 in data set [1] and in data set [2] was 50 to 100% each time. In data set [3], the mortality at 200 ppm was 0 to 80%. Moreover, in data set [4], the “YFM % Control (or Mortality) rating” value is listed as “A (80-100)”.
Consider `Cc1cc(C)c(-n2nccc2NC(=O)Nc2ccc(-c3ncn(-c4ccc(OC(F)(F)C(F)(F)F)cc4)n3)cc2)c(C)c1` [F18, 1-(1-Mesityl-1H-pyrazol-5-yl)-3-(4-(1-(4-(perfluoroethoxy)phenyl)-1H-1,2,4-triazol-3-yl)phenyl)urea], for which the mortality at 50 µg/cm2 in data set [1] and in data set [2] was 50 to 100% throughout. The mortality at 200 ppm in data set [3] lay within 0 to 80%. Also, the “YFM % Control (or Mortality) rating” value in data set [4] was “A (80-100)”.
Take `FC(F)(F)Oc1ccc(-n2cnc(-c3ccc(CCNC(=S)Nc4ccnn4-c4ccccc4)cc3)n2)cc1` [F65, 1-(1-phenyl-1H-pyrazol-5-yl)-3-(4-(1-(4-(trifluoromethoxy)phenyl)-1H-1,2,4-triazol-3-yl)phenethyl)thiourea]: the mortality at 50 µg/cm2 in data set [1], in data set [2] and in data set [5] was 50 to 100% throughout. Besides, in data set [4], the “YFM % Control (or Mortality) rating” value is recorded as “A (80-100)”.

The mortality is the percentage killed.
